Format in all cases: biochemical
One assay addresses T1, human Yes1 enzyme (Homo sapiens, UniProt P07947).
T1 construct: made in house
In words: Yes1 enzyme inhibitory activity (time-resolved fluorometry, biotinylated peptide phosphorylation). Conditions: biotinylated peptide phosphorylation, read-out: YES_IC50. Put shortly: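 Inhibition was expressed against a compound-free control to give IC50, using TR-FRET read-out (Eu-cryptate anti-pTyr antibody, streptavidin-XL665).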

For another assay, the target named is T2, human Src enzyme (Homo sapiens, UniProt P12931).
T2 construct: purchased Carna Biosciences, Inc. 08-173
Briefly: Src enzyme inhibitory activity (time-resolved fluorometry, biotinylated peptide phosphorylation). The conditions noted are these: biotinylated peptide phosphorylation, read-out: SRC_IC50. The method in brief: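 Compounds were tested for blocking tyrosine phosphorylation of a biotinylated peptide substrate by recombinant human Src. Phosphorylated product was quantified by time-resolved fluorometry using europium cryptate and XL665 conjugates, and IC50 was calculated against the compound-free control.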

The next assay concerns the target T3, human Lck enzyme (Homo sapiens, UniProt P06239).
T3 construct: purchased Carna Biosciences, Inc. 08-170
In words: Lck enzyme inhibitory activity (time-resolved fluorometry, biotinylated peptide phosphorylation). Conditions: biotinylated peptide phosphorylation, read-out: LCK_IC50. The method in brief: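 Readout pairs a europium cryptate-labelled anti-phosphotyrosine antibody with XL665-streptavidin, measured by time-resolved fluorescence. IC50 derived from percent inhibition against untreated controls.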

The record followed here is patent US10479780B2, “Aminopyrazole derivatives” (Chugai Seiyaku Kabushiki Kaisha, priority 2015, dated 2019).

T3 sequence (P06239 whole entry): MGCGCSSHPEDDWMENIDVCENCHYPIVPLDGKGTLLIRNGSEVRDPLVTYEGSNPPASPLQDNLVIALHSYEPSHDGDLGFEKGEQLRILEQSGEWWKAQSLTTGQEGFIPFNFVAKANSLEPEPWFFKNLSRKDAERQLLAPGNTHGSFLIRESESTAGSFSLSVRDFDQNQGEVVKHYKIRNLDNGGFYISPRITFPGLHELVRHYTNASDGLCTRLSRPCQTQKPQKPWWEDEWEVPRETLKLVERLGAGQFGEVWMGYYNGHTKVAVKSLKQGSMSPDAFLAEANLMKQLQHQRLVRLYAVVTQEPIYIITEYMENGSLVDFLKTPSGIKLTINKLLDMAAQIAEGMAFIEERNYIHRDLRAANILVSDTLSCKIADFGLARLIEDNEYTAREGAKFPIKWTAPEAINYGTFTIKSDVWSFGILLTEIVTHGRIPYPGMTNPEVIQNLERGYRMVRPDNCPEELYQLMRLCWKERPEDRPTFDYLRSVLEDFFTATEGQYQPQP
T1 sequence (P07947 whole entry): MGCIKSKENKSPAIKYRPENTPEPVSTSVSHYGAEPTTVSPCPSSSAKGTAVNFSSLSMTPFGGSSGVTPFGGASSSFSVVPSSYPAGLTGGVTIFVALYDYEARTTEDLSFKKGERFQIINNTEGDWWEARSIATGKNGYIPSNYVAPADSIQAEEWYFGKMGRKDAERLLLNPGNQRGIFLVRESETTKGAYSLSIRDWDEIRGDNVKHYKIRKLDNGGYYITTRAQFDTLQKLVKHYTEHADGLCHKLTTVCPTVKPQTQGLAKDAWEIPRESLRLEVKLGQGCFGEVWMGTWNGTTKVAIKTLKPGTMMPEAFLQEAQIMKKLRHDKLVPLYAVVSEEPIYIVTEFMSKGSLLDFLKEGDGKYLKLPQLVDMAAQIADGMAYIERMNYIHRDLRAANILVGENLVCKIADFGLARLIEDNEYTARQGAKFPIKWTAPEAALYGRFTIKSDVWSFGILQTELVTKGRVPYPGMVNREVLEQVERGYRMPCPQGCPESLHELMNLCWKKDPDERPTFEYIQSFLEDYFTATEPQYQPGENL
T2 sequence (P12931 whole entry): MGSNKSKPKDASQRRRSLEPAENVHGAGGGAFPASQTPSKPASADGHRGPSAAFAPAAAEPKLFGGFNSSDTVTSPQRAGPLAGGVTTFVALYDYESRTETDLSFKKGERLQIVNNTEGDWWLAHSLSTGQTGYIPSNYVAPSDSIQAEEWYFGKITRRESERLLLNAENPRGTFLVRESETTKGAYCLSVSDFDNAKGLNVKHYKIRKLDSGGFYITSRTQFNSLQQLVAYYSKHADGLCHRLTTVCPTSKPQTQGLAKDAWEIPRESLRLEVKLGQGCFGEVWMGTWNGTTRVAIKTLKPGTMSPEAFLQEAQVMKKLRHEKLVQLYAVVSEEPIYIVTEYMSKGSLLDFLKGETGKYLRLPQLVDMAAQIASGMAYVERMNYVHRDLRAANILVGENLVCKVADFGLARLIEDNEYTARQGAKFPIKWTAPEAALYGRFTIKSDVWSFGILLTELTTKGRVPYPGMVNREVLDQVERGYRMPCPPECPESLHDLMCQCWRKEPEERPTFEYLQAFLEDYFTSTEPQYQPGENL

With `Cc1cc2cc(C(=O)c3cnn(-c4cnc(Oc5ccccc5F)cc4C)c3N)[nH]c2cc1NS(=O)(=O)c1ccccn1` [Example 5-1-477, N-[2-[5-amino-1-[6-(2-fluorophenoxy)-4-methylpyridin-3-yl]pyrazole-4-carbonyl]-5-methyl-1H-indol-6-yl]pyridine-2-sulfonamide], the IC50 at human Yes1 enzyme was found to be 5.2 nM; at human Src enzyme, 250 nM; on human Lck enzyme, 48 nM.
For `Cc1cc2cc(C(=O)c3cnn(-c4cnc(Oc5ccccc5F)cc4C)c3N)[nH]c2cc1NS(=O)(=O)c1cc(C#N)ccn1` [Example 5-1-478, N-[2-[5-amino-1-[6-(2-fluorophenoxy)-4-methylpyridin-3-yl]pyrazole-4-carbonyl]-5-methyl-1H-indol-6-yl]-4-cyanopyridine-2-sulfonainide], the values for the IC50 on human Yes1 enzyme, on human Src enzyme and on human Lck enzyme were 4.8 nM, 280 nM and 77 nM, respectively.
In the case of `Cc1cc2cc(C(=O)c3cnn(-c4cnc(Oc5ccccc5F)cc4C)c3N)[nH]c2cc1NS(=O)(=O)c1cccc(C#N)n1` [Example 5-1-479, N-[2-[5-amino-1-[6-(2-fluorophenoxy)-4-methylpyridin-3-yl]pyrazole-4-carbonyl]-5-methyl-1H-indol-6-yl]-6-cyanopyridine-2-sulfonamide], the IC50 worked out at 3.3 nM on human Yes1 enzyme, 770 nM at human Src enzyme and 170 nM on human Lck enzyme.
In the same order, the values of `Cc1cc2cc(C(=O)c3cnn(-c4cnc(Oc5ccccc5F)cc4C)c3N)[nH]c2cc1NS(=O)(=O)c1cncc(C#N)c1` [Example 5-1-480, N-[2-[5-amino-1-[6-(2-fluorophenoxy)-4-methylpyridin-3-yl]pyrazole-4-carbonyl]-5-methyl-1H-indol-6-yl]-5-cyanopyridine-3-sulfonamide] are 6.4 nM, 400 nM and 100 nM.
`Cc1cc(C#N)cc(S(=O)(=O)Nc2cc3[nH]c(C(=O)c4cnn(-c5cnc(Oc6ccccc6F)cc5C)c4N)cc3cc2C)n1` [Example 5-1-481, N-[2-[5-amino-1-[6-(2-fluorophenoxy)-4-methylpyridin-3-yl]pyrazole-4-carbonyl]-5-methyl-1H-indol-6-yl]-4-cyano-6-methylpyridine-2-sulfonamide]: the IC50 was determined as 5.4 nM at human Yes1 enzyme, 450 nM on human Src enzyme and 110 nM on human Lck enzyme.
As for `COc1ccnc(S(=O)(=O)Nc2cc3[nH]c(C(=O)c4cnn(-c5cnc(Oc6ccccc6F)cc5C)c4N)cc3cc2C)c1` [Example 5-1-482, N-[2-[5-amino-1-[6-(2-fluorophenoxy)-4-methylpyridin-3-yl]pyrazole-4-carbonyl]-5-methyl-1H-indol-6-yl]-4-methoxypyridine-2-sulfonamide], the IC50 at human Yes1 enzyme is 6.3 nM; on human Src enzyme it was 480 nM; on human Lck enzyme it was 140 nM.
In the same order, the values of `COc1cccc(S(=O)(=O)Nc2cc3[nH]c(C(=O)c4cnn(-c5cnc(Oc6ccccc6F)cc5C)c4N)cc3cc2C)n1` [Example 5-1-483, N-[2-[5-amino-1-[6-(2-fluorophenoxy)-4-methylpyridin-3-yl]pyrazole-4-carbonyl]-5-methyl-1H-indol-6-yl]-6-methoxypyridine-2-sulfonamide] are 6.7 nM, 710 nM and 250 nM.
In the same order, the values of `COc1cncc(S(=O)(=O)Nc2cc3[nH]c(C(=O)c4cnn(-c5cnc(Oc6ccccc6F)cc5C)c4N)cc3cc2C)c1` [Example 5-1-484, N-[2-[5-amino-1-[6-(2-fluorophenoxy)-4-methylpyridin-3-yl]pyrazole-4-carbonyl]-5-methyl-1H-indol-6-yl]-5-methoxypyridine-3-sulfonamide] are 6.9 nM, 570 nM and 140 nM.
In the same order, the values of `Cc1cc2cc(C(=O)c3cnn(-c4cnc(Oc5ccccc5F)cc4C)c3N)[nH]c2cc1NS(=O)(=O)c1cc(C(F)(F)F)ccn1` [Example 5-1-485, N-[2-[5-amino-1-[6-(2-fluorophenoxy)-4-methylpyridin-3-yl]pyrazole-4-carbonyl]-5-methyl-1H-indol-6-yl]-4-(trifluoromethyl) pyridine-2-sulfonamide] are 6.8 nM, 520 nM and 110 nM.
Consider `Cc1cc2cc(C(=O)c3cnn(-c4cnc(Oc5ccccc5F)cc4C)c3N)[nH]c2cc1NS(=O)(=O)c1cccc(C(F)(F)F)n1` [Example 5-1-486, N-[2-[5-amino-1-[6-(2-fluorophenoxy)-4-methylpyridin-3-yl]pyrazole-4-carbonyl]-5-methyl-1H-indol-6-yl]-6-(trifluoromethyl) pyridine-2-sulfonamide], for which the IC50 came to 7.3 nM on human Yes1 enzyme, 620 nM at human Src enzyme and 160 nM on human Lck enzyme.
In the same order, the values of `Cc1cc2cc(C(=O)c3cnn(-c4cnc(Oc5ccccc5F)cc4C)c3N)[nH]c2cc1NS(=O)(=O)c1cncc(C(F)(F)F)c1` [Example 5-1-487, N-[2-[5-amino-1-[6-(2-fluorophenoxy)-4-methylpyridin-3-yl]pyrazole-4-carbonyl]-5-methyl-1H-indol-6-yl]-5-(trifluoromethyl) pyridine-3-sulfonamide] are 11 nM, 510 nM and 110 nM.
In the same order, the values of `Cc1cncc(S(=O)(=O)Nc2cc3[nH]c(C(=O)c4cnn(-c5cnc(Oc6ccccc6F)cc5C)c4N)cc3cc2C)c1` [Example 5-1-488, N-[2-[5-amino-1-[6-(2-fluorophenoxy)-4-methylpyridin-3-yl]pyrazole-4-carbonyl]-5-methyl-1H-indol-6-yl]-5-methylpyridine-3-sulfonamide] are 4.2 nM, 520 nM and 120 nM.
For the compound `Cc1cc(Oc2ccccc2F)ccc1-n1ncc(C(=O)c2cc3cc(F)c(NS(=O)(=O)c4cccnc4)cc3[nH]2)c1N` [Example 5-1-489, N-[2-[5-amino-1-[4-(2-fluorophenoxy)-2-methylphenyl]pyrazole-4-carbonyl]-5-fluoro-1H-indol-6-yl]pyridine-3-sulfonamide], the IC50 on human Yes1 enzyme came to 1.9 nM; at human Src enzyme, 190 nM; on human Lck enzyme, 49 nM.
In the same order, the values of `Cc1cc(Oc2ccccc2F)ccc1-n1ncc(C(=O)c2cc3cc(F)c(NS(=O)(=O)c4cccc(C#N)c4)cc3[nH]2)c1N` [Example 5-1-490, N-[2-[5-amino-1-[4-(2-fluorophenoxy)-2-methylphenyl]pyrazole-4-carbonyl]-5-fluoro-1H-indol-6-yl]-3-cyanobenzenesulfonamide] are 3.7 nM, 430 nM and 110 nM.
In the same order, the values of `Cc1cc(Oc2c(F)cccc2F)ncc1-n1ncc(C(=O)c2cc3cc(F)c(NS(=O)(=O)c4cccnc4)cc3[nH]2)c1N` [Example 5-1-491, N-[2-[5-amino-1-[6-(2,6-difluorophenoxy)-4-methylpyridin-3-yl]pyrazole-4-carbonyl]-5-fluoro-1H-indol-6-yl]pyridine-3-sulfonamide] are 4.9 nM, 400 nM and 100 nM.
In the same order, the values of `Cc1cc(Oc2c(F)cccc2F)ncc1-n1ncc(C(=O)c2cc3cc(F)c(NS(=O)(=O)c4cccc(C#N)c4)cc3[nH]2)c1N` [Example 5-1-492, N-[2-[5-amino-1-[6-(2,6-difluorophenoxy)-4-methylpyridin-3-yl]pyrazole-4-carbonyl]-5-fluoro-1H-indol-6-yl]-3-cyanobenzenesulfonamide] are 8 nM, 760 nM and 150 nM.
Take `Cc1cc2cc(C(=O)c3cnn(-c4cnc(Oc5ccccc5F)cc4C)c3N)[nH]c2cc1NS(=O)(=O)c1cncc(F)c1` [Example 5-1-494, N-[2-[5-amino-1-[6-(2-fluorophenoxy)-4-methylpyridin-3-yl]pyrazole-4-carbonyl]-5-methyl-1H-indol-6-yl]-5-fluoropyridine-3-sulfonamide]: the IC50 was found to be 3 nM on human Yes1 enzyme, 430 nM at human Src enzyme and 230 nM at human Lck enzyme.
With `Cc1cc2cc(C(=O)c3cnn(-c4cnc(Oc5ccccc5F)cc4C)c3N)[nH]c2cc1NS(=O)(=O)c1cncc(Cl)c1` [Example 5-1-495, N-[2-[5-amino-1-[6-(2-fluorophenoxy)-4-methylpyridin-3-yl]pyrazole-4-carbonyl]-5-methyl-1H-indol-6-yl]-5-chloropyridine-3-sulfonamide], the IC50 was 3.9 nM on human Yes1 enzyme, 550 nM at human Src enzyme and 360 nM on human Lck enzyme.
In the same order, the values of `COc1cc(F)cc(S(=O)(=O)Nc2cc3[nH]c(C(=O)c4cnn(-c5cnc(Oc6ccccc6F)cc5C)c4N)cc3cc2C)c1` [Example 5-1-496, N-[2-[5-amino-1-[6-(2-fluorophenoxy)-4-methylpyridin-3-yl]pyrazole-4-carbonyl]-5-methyl-1H-indol-6-yl]-3-fluoro-5-methoxybenzenesulfonamide] are 11 nM, 1300 nM and 630 nM.
In the same order, the values of `Cc1cc2cc(C(=O)c3cnn(-c4cnc(Oc5ccccc5F)cc4C)c3N)[nH]c2cc1NS(=O)(=O)c1cc(F)cc(C#N)c1` [Example 5-1-497, N-[2-[5-amino-1-[6-(2-fluorophenoxy)-4-methylpyridin-3-yl]pyrazole-4-carbonyl]-5-methyl-1H-indol-6-yl]-3-cyano-5-fluorobenzenesulfonamide] are 4.7 nM, 660 nM and 170 nM.
